# Laboratory results: paper PMC8066341, “Chemical Profiles, Anticancer, and Anti-Aging Activities of Essential Oils of Pluchea dioscoridis (L.) DC. and Erigeron bonariensis L” (Plants, 2021)
# Experiments:
# mushroom tyrosinase = biological target: T1, mushroom tyrosinase; assay: dopachrome formation, absorbance […] nm; assay type: biochemical; conditions: L-tyrosine substrate (0.85 mM solution); phosphate pH 6.8; 15 min preincubation at 25 °C
# T1 construct: gene PPO1
# [1] = biological target: T2, Collagenase from Clostridium histolyticum (ChC); assay: FALGPA hydrolysis, microplate absorbance; assay type: biochemical, Hathewaya histolytica; conditions: 50 mM tricine pH 7.5, 400 mM NaCl, 10 mM CaCl2; 15 min preincubation; FALGPA substrate
# T2 construct: gene colG
# [2] = biological target: T3, Porcine pancreatic elastase (Sus scrofa, UniProt P00772); assay: N-succinyl-Ala-Ala-Ala-p-nitroanilide hydrolysis, absorbance […] nm; assay type: biochemical
# T3 construct: gene CELA1; native enzyme from pancreas (commercial)
# T3 sequence (P00772 27-266): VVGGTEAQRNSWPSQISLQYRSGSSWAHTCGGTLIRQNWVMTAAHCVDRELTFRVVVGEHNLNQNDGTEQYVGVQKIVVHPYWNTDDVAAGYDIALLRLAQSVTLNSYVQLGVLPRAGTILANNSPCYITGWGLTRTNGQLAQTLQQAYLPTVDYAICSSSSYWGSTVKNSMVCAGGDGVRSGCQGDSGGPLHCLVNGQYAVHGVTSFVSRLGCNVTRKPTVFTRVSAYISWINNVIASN
smiles,measurement,setting,value
O=C(O[C@@H]1Cc2c(O)cc(O)cc2O[C@@H]1c1cc(O)c(O)c(O)c1)c1cc(O)c(O)c(O)c1 [epigallocatechin gallate],IC50,mushroom tyrosinase,14.37 mg/L
same,IC50,[1],1.56 mg/L
same,IC50,[2],22.4 µM
